{"source": "paper PMC3844044", "about": "(Journal of medicinal chemistry, 2013)", "key": {"[1]": {"test_system": "bortezomib-resistant THP-1 cell line (BTZ500)", "assay": "Cell viability, bortezomib-resistant THP-1 cell line", "assay_type": "cell-based, human"}, "[2]": {"test_system": "proteasome", "conditions": "read-out: reported IC50 for proteasome inhibition; cited from earlier work"}, "[3]": {"conditions": "conversion to inactive aromatic imidazole 5; ref 13b; cited from earlier work"}, "[4]": {"biological_target": "purified human 20S proteasome (Homo sapiens, UniProt P28074)", "assay": "Inhibition of the chymotryptic-like activity of purified human 20S proteasome", "assay_type": "biochemical"}, "[5]": {"test_system": "NF-κB mediated gene transcription", "conditions": "read-out: NF-κB-luc IC50; Table 1; cell culture, previously reported; cited from earlier work"}, "[6]": {"test_system": "human myelomonocytic THP-1 cells", "assay": "Cell viability, THP-1 wild type cells, 72 hours", "assay_type": "cell-based", "conditions": "screened at 10 μM and 5 μM"}}, "note": "pIC50: −log10 of the molar value."}
{"compound": "CC(C)C[C@H](NC(=O)[C@H](Cc1ccccc1)NC(=O)c1cnccn1)B(O)O", "note": "[Bortezomib, bortezomib, reference compound]", "values": [{"measurement": "% cell viability Resistant", "setting": "[1]; BTZ500, bortezomib at 0.5 μM, 72 hours", "value": "unable to induce significant cytotoxicity"}, {"measurement": "pIC50", "setting": "[2]", "value": "[…]"}]}
{"compound": "c1ccc(CN2C(c3ccccc3)=N[C@H](c3ccccc3)[C@H]2c2ccccc2)cc1", "note": "[compound 2]", "values": [{"measurement": "stability upon standing", "setting": "[3]", "value": "slowly isomerised and dehydrogenated"}]}
{"compound": "c1ccc(CN2C(c3ccccc3)=N[C@@H](c3ccccc3)[C@H]2c2ccccc2)cc1", "note": "[compound 3]", "values": [{"measurement": "proteasome inhibitory activity (in words)", "setting": "[4]", "value": "depleted of activity"}, {"measurement": "pIC50", "setting": "[5]", "value": "< 5.00"}, {"measurement": "stability upon standing", "setting": "[3]", "value": "slowly isomerised and dehydrogenated"}]}
{"compound": "c1ccc(CN2CCN=C2c2ccccc2)cc1", "note": "[compound 4]", "values": [{"measurement": "proteasome inhibitory activity (in words)", "setting": "[4]", "value": "depleted of activity"}, {"measurement": "pIC50", "setting": "[5]", "value": "< 5.00"}]}
{"compound": "c1ccc(Cn2c(-c3ccccc3)nc(-c3ccccc3)c2-c2ccccc2)cc1", "note": "[compound 5]", "values": [{"measurement": "proteasome inhibitory activity (in words)", "setting": "[4]", "value": "depleted of activity"}, {"measurement": "pIC50", "setting": "[5]", "value": "< 5.00"}]}
{"compound": "CCOC(=O)[C@]1(c2ccccc2)N=C(c2ccccc2)N[C@@H]1c1ccccc1", "note": "[compound 11]", "values": [{"measurement": "proteasome inhibitory activity (in words)", "setting": "[4]", "value": "depleted of all activity"}]}
{"compound": "CCOC(=O)[C@]1(c2ccccc2)N=C(c2ccccc2)N(C(C)=O)[C@@H]1c1ccccc1", "note": "[compound 12]", "values": [{"measurement": "proteasome inhibitory activity (in words)", "setting": "[4]", "value": "depleted of activity"}]}
{"compound": "CCOC(=O)[C@]1(c2ccccc2)N=C(c2ccccc2)N(C(=O)c2ccccc2)[C@@H]1c1ccccc1", "note": "[compound 13]", "values": [{"measurement": "proteasome inhibitory activity (in words)", "setting": "[4]", "value": "depleted of activity"}]}
{"compound": "CCOC(=O)[C@]1(c2ccccc2)N=C(c2ccccc2)N(S(=O)(=O)c2ccc(C)cc2)[C@@H]1c1ccccc1", "note": "[compound 14]", "values": [{"measurement": "proteasome inhibitory activity (in words)", "setting": "[4]", "value": "depleted of activity"}]}
{"compound": "CCOC(=O)[C@]1(c2ccccc2)N=C(c2ccccc2)N(Cc2ccccc2)[C@@H]1c1ccncc1", "note": "[compound 20]", "values": [{"measurement": "proteasome inhibitory activity (in words)", "setting": "[4]", "value": "inactive"}]}
{"compound": "CCOC(=O)[C@]1(c2ccccc2)N=C(c2ccccc2)N(Cc2ccccc2)[C@@H]1c1ccc(NCc2ccccc2)cc1", "note": "[compound 29]", "values": [{"measurement": "pIC50", "setting": "[4]; IC50 proteasome inhibition", "value": 6.30}]}
{"compound": "CCOC(=O)[C@]1(c2ccccc2)N=C(c2ccc(OC)cc2)N(Cc2ccccc2)[C@@H]1c1ccc(N)cc1", "note": "[compound 37]", "values": [{"measurement": "cytotoxic activity (in words), THP-1 wild type", "setting": "[6]", "value": "weak cytotoxic activity"}, {"measurement": "cytotoxic activity (in words), bortezomib-resistant BTZ500", "setting": "[1]; screened at 10 μM and 5 μM", "value": "weak cytotoxic activity"}]}
